Measured values: patent publication US20230405095A1, “DOSING REGIMEN” (VIIV HEALTHCARE UK (NO. 7) LIMITED, priority 2022, published 2023)
Values joined by “and” are separate entries in the source; they are usually repeats but may differ in a detail not shown here. Identical values can stand only once. Like-named read-outs stand apart in the source and are kept apart here.

Legend:
[1] = Clinical PK of single SC injection of CAB200 with rHuPH20 (Studies 212482 and 218012); type: in vivo, healthy adult participants; settings: SC with rHuPH20, dose level of 3200 mg or lower
Protocol: In a Phase 1 open-label, dose-escalation study to investigate the safety, tolerability and pharmacokinetics of single-dose administration of various CAB formulations with and without rHuPH20 in healthy adult participants, CAB200 at doses of 800, 1600 and 3200 mg have been administered with rHuPH20 (10,000 IU). rHuPH20 and CAB formulations were administered sequentially; subcutaneous (SC) administration by a health care provider (HCP) is via a butterfly needle and slow SC infusion in the abdominal SC tissue using a syringe pump.
A summary of CAB200 LA SC PK data with rHuPH20 is set forth in the Table below. • In Study 212482, single SC injection of CAB200 (2 mL/400 mg) with rHuPH20 (5000 units) was studied in Cohort 4 h. • In Study 218012, single SC injection of CAB200 with rHuPH20 was studied in cohorts A1 (4 mL/800 mg CAB200), A2 (8 mL/1600 mg CAB200) and A3 (16 mL/3200 mg CAB200). The dose of rHuPH20 was 10000 units. In both studies, rHuPH20 was injected first, followed by SC injection of CAB200.

[2] = Blood pharmacokinetics of cabotegravir after a single subcutaneous administration with or without rHuPH20; type: in vivo, male Sprague-Dawley rats; settings: for Tmax / half-life / AUC(0-t) / Cmax / AUC (0-tlast) / T½: rat blood; for half-life: read-out: T½ (converted); for AUC(0-t): read-out: AUC (0-tlast)
Protocol: Cabotegravir (free acid) was supplied by the Department of Pharmaceutical Development, at GSK, Upper Providence (UP), as a wet bead milled suspension (WBM), of nominal 200 mg/mL active concentration, white to slightly pink in appearance to be used for subcutaneous (SC) injection. The test article was milled and supplied in an aqueous vehicle (see Table 1). The test article was filled into vials, stoppered, sealed and subjected to gamma sterilization at between 25-45 kGy.
Twelve male Sprague-Dawley rats (body weight approximately 275-300 grams upon arrival), from Charles River Laboratories, Raleigh, were used in this study. Rats were randomized by number one day prior to the start of study. All rats were euthanized at study end.
Dose volumes administered for cabotegravir (target concentration of 200 mg/mL) were based on animal weights obtained just prior to dosing to achieve a target dosage of 10 mg/kg (groups 1 and 2) and 5 mg/kg (groups 3 and 4). Test article was resuspended prior to dosing by inverting supplied vials and checking vial bottom for non-resuspended sediments. Syringes used to dose cabotegravir were weighed pre- and post-dose to determine exact amount of cabotegravir administered. Rats were lightly anesthetized under isoflurane for a short period to perform the dosing procedure. Injection sites were shaved immediately prior to dosing, wiped with alcohol and allowed to dry. For groups 1 and 3, the cabotegravir doses were injected subcutaneously into the lower scapular region. After removing the dosing needle, minimal, but adequate, pressure was applied to the skin at the injection site (i.e., to keep the site still and closed) for approximately 1 minute to enable coagulation and sealing of the puncture. The sites were observed immediately after the needle was withdrawn to note any dose leakage. For groups 2 and 4, the rHuPH20 was injected subcutaneously first (approximately 3000 units in 100 μL, these syringes were not weighed), immediately followed by the Cabotegravir injection with the goal of injecting both formulations in the same subcutaneous space of the lower scapular region. After removing the second dosing needle, minimal, but adequate, pressure was applied to the skin at the injection site (i.e., to keep the site still and closed) for approximately 1 minute to enable coagulation and sealing of the puncture. Any dose leakage was noted. Injection sites were monitored daily for the first week of study and then weekly for the remainder of the study and observations recorded. Body weights were recorded on day 0 and then weekly for the remainder of the study.
Blood samples were collected via lateral vein or tail tip amputation. On study Day 0, following subcutaneous injection, blood samples (approximately 75 μL/rat/time point) were collected into 500 μL K2 EDTA tubes at 1, 2, 4 and 8 hr. Samples were then collected at 24 hrs., 48 hrs., and on Days 3, 7, 14, 21, 28, 56 and 84. Exactly 75 μL of whole blood was pipetted into a new tube containing 75 μL of sterile water. Samples were vortexed and placed on dry ice immediately. Samples were stored at −80° C. until transferred to Yinghe Li (DMPK, US) for analysis.
Rat blood: water samples were analyzed for cabotegravir using an analytical method based on protein precipitation, followed by UPLC/MS/MS analysis. The lower limit of quantification (LLQ) for cabotegravir was 5 ng/mL using a 150 μL aliquot of rat blood: water with a higher limit of quantification (HLQ) of 20000 ng/mL. Analyst software version 1.7.1 was used to acquire and process LC-MS/MS data. The applicable analytical runs met all predefined run acceptance criteria.
Pharmacokinetic analysis of cabotegravir blood concentration-time data was performed by a non-compartmental method using Phoenix WinNonlin®, Version 8.1 software. All computations utilized nominal sampling times and doses for the study. […]

[3] = test system: HIV-1 strains; settings: integrase strand transfer inhibitor; broad range of HIV-1 strains; cited from earlier work
[4] = CAB Cmax safety threshold; type: in vivo; settings: CAB plasma concentration; read-out: safety threshold: Cmax not associated with any toxicity
[5] = male, Sprague-Dawley, rat, whole blood, sc, 5 mg/kg, single SC 5 mg/kg, with rHuPH20 approx. 3000 units SC (Group 4), mean ± SD
[6] = male, Sprague-Dawley, rat, whole blood, sc, 5 mg/kg, single SC 5 mg/kg, without rHuPH20 (Group 3), individual animals
[7] = male, Sprague-Dawley, rat, whole blood, sc, 5 mg/kg, single SC 5 mg/kg, without rHuPH20 (Group 3), mean ± SD
[8] = male, Sprague-Dawley, rat, whole blood, sc, 10 mg/kg, single SC 10 mg/kg, with rHuPH20 approx. 3000 units SC (Group 2), mean ± SD
[9] = single SC 5 mg/kg, with rHuPH20 approx. 3000 units SC (Group 4), individual animals, 5 mg/kg
[10] = single SC 5 mg/kg, without rHuPH20 (Group 3), individual animals, 5 mg/kg
[11] = single SC 10 mg/kg, with rHuPH20 approx. 3000 units SC (Group 2), individual animals, 10 mg/kg
[12] = single SC 10 mg/kg, without rHuPH20 (Group 1), individual animals, 10 mg/kg

## C[C@H]1CO[C@@H]2Cn3cc(C(=O)NCc4ccc(F)cc4F)c(=O)c(O)c3C(=O)N12 [Cabotegravir, N-((2,4-Difluorophenyl)methyl)-6-hydroxy-3-methyl-5,7-dioxo-2,3,5,7,11,11a hexahydro(1,3)oxazolo(3,2-a)pyrido(1,2-d)pyrazine-8-carboxamide]
[1]
  CAB SC Cmax versus safety threshold: < 22500 ng/mL
[2]; male, Sprague-Dawley, rat, whole blood, sc, 5 mg/kg, single SC 5 mg/kg, with rHuPH20 approx. 3000 units SC (Group 4), individual animals, read-out: Tmax
  Tmax: 14.2 days
[2]; male, Sprague-Dawley, rat, whole blood, sc, 5 mg/kg, single SC 5 mg/kg, with rHuPH20 approx. 3000 units SC (Group 4), individual animals
  half-life: 10 days
[2]; [5]
  AUC(0-t): 2800 ± 993 µg·h/mL
  half-life: 7.5 days
[2]; male, Sprague-Dawley, rat, whole blood, sc, 5 mg/kg, single SC 5 mg/kg, with rHuPH20 approx. 3000 units SC (Group 4), mean ± SD, read-out: Cmax
  Cmax: 3800 ± 1600 ng/mL
[2]; male, Sprague-Dawley, rat, whole blood, sc, 5 mg/kg, single SC 5 mg/kg, with rHuPH20 approx. 3000 units SC (Group 4), median, read-out: Tmax
  Tmax: 14.2 days
[2]; [6]
  AUC(0-t): 4540 µg·h/mL
  half-life: 8.33 days
[2]; male, Sprague-Dawley, rat, whole blood, sc, 5 mg/kg, single SC 5 mg/kg, without rHuPH20 (Group 3), individual animals, read-out: Cmax
  Cmax: 7600 ng/mL
[2]; male, Sprague-Dawley, rat, whole blood, sc, 5 mg/kg, single SC 5 mg/kg, without rHuPH20 (Group 3), individual animals, read-out: Tmax
  Tmax: 14.2 days
[2]; [7]
  AUC(0-t): 4400 ± 903 µg·h/mL
  half-life: 8.33 days
[2]; male, Sprague-Dawley, rat, whole blood, sc, 5 mg/kg, single SC 5 mg/kg, without rHuPH20 (Group 3), mean ± SD, read-out: Cmax
  Cmax: 7000 ± 1500 ng/mL
[2]; male, Sprague-Dawley, rat, whole blood, sc, 5 mg/kg, single SC 5 mg/kg, without rHuPH20 (Group 3), median, read-out: Tmax
  Tmax: 14.2 days
[2]; male, Sprague-Dawley, rat, whole blood, sc, 10 mg/kg, single SC 10 mg/kg, with rHuPH20 approx. 3000 units SC (Group 2), individual animals
  AUC(0-t): 6280 µg·h/mL
[2]; male, Sprague-Dawley, rat, whole blood, sc, 10 mg/kg, single SC 10 mg/kg, with rHuPH20 approx. 3000 units SC (Group 2), individual animals, read-out: Cmax
  Cmax: 10000 ng/mL
[2]; male, Sprague-Dawley, rat, whole blood, sc, 10 mg/kg, single SC 10 mg/kg, with rHuPH20 approx. 3000 units SC (Group 2), individual animals, read-out: Tmax
  Tmax: 14.2 days
[2]; [8]
  AUC(0-t): 7730 ± 1930 µg·h/mL
  half-life: 15 days
[2]; male, Sprague-Dawley, rat, whole blood, sc, 10 mg/kg, single SC 10 mg/kg, with rHuPH20 approx. 3000 units SC (Group 2), mean ± SD, read-out: Cmax
  Cmax: 9100 ± 2100 ng/mL
[2]; male, Sprague-Dawley, rat, whole blood, sc, 10 mg/kg, single SC 10 mg/kg, with rHuPH20 approx. 3000 units SC (Group 2), median, read-out: Tmax
  Tmax: 14.2 days
[2]; male, Sprague-Dawley, rat, whole blood, sc, 10 mg/kg, single SC 10 mg/kg, without rHuPH20 (Group 1), individual animals
  AUC(0-t): 5640 µg·h/mL
[2]; male, Sprague-Dawley, rat, whole blood, sc, 10 mg/kg, single SC 10 mg/kg, without rHuPH20 (Group 1), individual animals, read-out: Tmax
  Tmax: 14.2 days
[2]; male, Sprague-Dawley, rat, whole blood, sc, 10 mg/kg, single SC 10 mg/kg, without rHuPH20 (Group 1), mean ± SD (animal 12 excluded)
  half-life: 13.8 days
[2]; male, Sprague-Dawley, rat, whole blood, sc, 10 mg/kg, single SC 10 mg/kg, without rHuPH20 (Group 1), mean ± SD
  AUC(0-t): 7320 ± 2320 µg·h/mL
[2]; male, Sprague-Dawley, rat, whole blood, sc, 10 mg/kg, single SC 10 mg/kg, without rHuPH20 (Group 1), mean ± SD, read-out: Cmax
  Cmax: 8000 ± 3500 ng/mL
[2]; male, Sprague-Dawley, rat, whole blood, sc, 10 mg/kg, single SC 10 mg/kg, without rHuPH20 (Group 1), median, read-out: Tmax
  Tmax: 14.2 days
[2]; [9]
  AUC (0-tlast): 3348 µg·h/mL and 1654 µg·h/mL and 3397 µg·h/mL
  Cmax: 3200 ng/mL and 2600 ng/mL and 5700 ng/mL
  Tmax: 7.08 days
  T½: 160 h and 140 h
[2]; [10]
  AUC (0-tlast): 5221 µg·h/mL and 3432 µg·h/mL
  Cmax: 5200 ng/mL
  Tmax: 7.08 days
  T½: 220 h and 170 h
[2]; [11]
  AUC (0-tlast): 7008 µg·h/mL and 9916 µg·h/mL
  Cmax: 6800 ng/mL
  T½: 210 h and 360 h and 510 h
[2]; [12]
  AUC (0-tlast): 9970 µg·h/mL and 6333 µg·h/mL
  Cmax: 7100 ng/mL and 12000 ng/mL and 5100 ng/mL
  T½: 430 h and 230 h and 1100^b^ h
[2]; rats, single SC 5 and 10 mg/kg, rHuPH20 3000 U
  systemic exposure with versus without administration of rHuPH20: similar
[2]; rats, single SC, target doses of 5 and 10 mg/kg
  systemic exposure as defined by AUC: dose proportionality: approximately dose proportional
[3]
  potency: subnanomolar
[4]
  Cmax: 22500 ng/mL
